Measurements from article PMC10541411 (Nature Communications, 2023).
Ends that are not written are not given here. Me2 = dimethyl-lysine

Tests used:
53BP1^TT WT = 53BP1^TT WT (Homo sapiens, UniProt Q12888); experiment: 1H-15N HSQC NMR titration of 15N-labeled wild-type 53BP1TT; type: binding; set-up: The tandem Tudor domain of 53BP1 (53BP1^TT, residues 1481–1603) was purified as previously described; made in house; host or cells: E. coli (only for the SAXS sample); details: 15N-labeled WT 53BP1TT
Sequence of 53BP1^TT WT (Q12888 1481-1603): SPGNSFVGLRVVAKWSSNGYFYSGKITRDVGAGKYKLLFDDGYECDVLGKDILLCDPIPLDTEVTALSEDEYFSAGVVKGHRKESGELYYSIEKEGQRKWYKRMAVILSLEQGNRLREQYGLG
Experimental: (§1) All NMR data were collected at 25 °C on a 700 MHz Bruker Avance III spectrometer equipped with a cryoprobe. Data were processed and analyzed with NMRPipe[54] and NMRViewJ[55],[56].
(§2) To probe chemical shift perturbations, ^1H-^15N HSQC spectra were acquired on the following samples: 0.2 mM ^15N-labeled 53BP1^TT WT and 53BP1^TT-PN in 25 mM sodium phosphate, pH 7.0, 1.5 mM NaN3, 0.3 mM DSS, 90% H2O/10% D2O, free and incrementally titrated with various non-labeled inhibitors (UNC1078, UNC1118, UNC2170, UNC2991, UNC3474), as well as with H4KC20me2 and p53K382me2 peptides. Chemical shift perturbations (Δδ) were calculated using the Eq. (1):1 Δδ=(ΔN/5)^2+ΔH^2 where ΔN and ΔH are the corresponding differences in ^15N and ^1H chemical shifts between the bound and free forms of 53BP1.

[1] = target: T1, 53BP1^TT (tandem Tudor domain of 53BP1, residues 1481–1603) (Homo sapiens, UniProt Q12888); experiment: Isothermal titration calorimetry (ITC) of small molecules with 53BP1TT; type: binding; details: 25 °C, 50 mM Tris-HCl pH 7.5, 50 mM NaCl, one-site model; read-out: Kd (apparent, ITC)
T1 construct: The tandem Tudor domain of 53BP1 (53BP1^TT, residues 1481–1603) was purified as previously described; made in house; host or cells: E. coli (only for the SAXS sample)
T1 sequence (Q12888 1481-1603): as above
Experimental: The ITC measurements were performed at 25 °C using a MicroCal iTC200 calorimeter. 53BP1^TT and the small molecules (UNC2991, UNC3351, UNC3474) were in 50 mM Tris-HCl, pH 7.5, 50 mM NaCl. In a typical run, 53BP1^TT was in the reaction cell at a concentration of 150 to 160 μM while the small molecule, in the titration syringe at a concentration of 0.8–2 mM, was delivered as 2 μL injections every 3 min. The titrations were paired with control experiments for heat of dilution. The titration of 53BP1^TT with UNC1118 was performed using a MicroCal VP-ITC calorimeter. ITC data were fitted to a one-site model using a Levenberg-Marquardt non-linear regression algorithm programmed in the Origin 7.0 software.
Supplementary Figure 1 | Interaction of 53BP1TT with small molecules probed using isothermal titration calorimetry (ITC) and small-angle X-ray scattering (SAXS). a, ITC of the interaction of UNC2991, UNC3351 and UNC3474 with 53BP1TT. Raw titration data and integrated heat measurements are shown. Indicated apparent Kds with associated standard deviations were determined by nonlinear least-squares analysis.
1.33 and 2 mg/mL with an exposure time of 0.5 s, without and with 10-fold molar excess of UNC1118 or UNC3474. The error bars in the scattering curves were generated using PRIMUS in the data analysis software ATSAS 2.4.2 and represent mean ± standard deviation calculated from signal intensity scaling and merging for the three different 53BP1TT concentrations. The Guinier plots, dimensionless Kratky plots and pair distance distribution functions derived from the SAXS data are shown. Also shown are the crystal structures of 53BP1TT and 53BP1TT-UNC3474 overlaid to the corresponding SAXS-based ab initio molecular envelopes generated using GASBOR 2.3i. c, Interaction of UNC1118 with 53BP1TT characterized using ITC (left) and NMR spectroscopy (right).
For the ITC, raw titration data and integrated heat measurements are shown. The indicated Kd with associated standard deviation was determined by nonlinear least-squares analysis.
(1 picture or pasted object on this page, not shown here)

[2] = target: T2, 53BP1^TT-PN (E1549P/D1550N) (Homo sapiens, UniProt Q12888, D1550N/E1549P); experiment: 1H-15N HSQC NMR titration of 15N-labeled 53BP1TT-PN; type: binding; details: up to fourfold molar excess
T2 construct: The tandem Tudor domain of 53BP1 (53BP1^TT, residues 1481–1603) was purified as previously described; made in house
T2 sequence (Q12888 1481-1603 E1549P/D1550N): as the sequence (Q12888 1481-1603) above, with E69P, D70N counted along it
Experimental: as §1, §2

[3] = target: 53BP1^TT-CC (tandem Tudor domain of 53BP1, residues 1481-1603, E1549C/E1567C), disulfide-crosslinked homodimer (UniProt Q12888); experiment: AUC; sedimentation velocity of 53BP1^TT-CC (20 uM) without DTT; 20 °C, 20 mM sodium phosphate pH 7.5, 50 mM NaCl
53BP1^TT = target: T3, 53BP1^TT (Homo sapiens, UniProt Q12888); set-up: method as in PMID 25590533; details: previously identified; read-out: dissociation constant (Kd); cited from earlier work
T3 construct: The tandem Tudor domain of 53BP1 (53BP1^TT, residues 1481–1603) was purified as previously described; made in house; host or cells: E. coli (only for the SAXS sample)
T3 sequence (Q12888 1481-1603): as the sequence (Q12888 1481-1603) above

53BP1^TT homodimer = target: T4, 53BP1^TT homodimer (Homo sapiens, UniProt Q12888); experiment: 2D longitudinal 1H-15N-heteronuclear ZZ-exchange NMR spectroscopy, protomer interconversion; type: binding; details: 25 °C, 1 mM 15N-labeled 53BP1TT and 9 mM UNC2170, signals of E1524
T4 construct: The tandem Tudor domain of 53BP1 (53BP1^TT, residues 1481–1603) was purified as previously described; made in house; host or cells: E. coli (only for the SAXS sample)
T4 sequence (Q12888 1481-1603): as above
Experimental: as §1
The protomer interconversion rates in the 53BP1^TT-UNC2970 complex were determined using 2D longitudinal ^1H-^15N-heteronuclear ZZ-exchange NMR spectroscopy[22]–[24]. For these experiments, a series of 11 spectra were acquired with mixing times of 0, 100, 200, 300, 400, 500, 600, 700, 800, 900, and 1000 ms in 25 mM sodium phosphate, pH 7.0, 100 mM NaCl, 1.5 mM NaN3, 0.3 mM DSS, 90% H2O/10% D2O. The interconversion rates were obtained from nonlinear fitting of auto peak and exchange peak intensities accounting for two-site exchange and ^15N R1 relaxation using the equations previously described for a two-state model.

Row | Kd [1] | interaction with 53BP1TT-PN (1H-15N HSQC titration) [2] | Compound | changes in signal positions in the 1H-15N HSQC spectrum of 53BP1TT upon titration (53BP1^TT WT) | other results
1 |  | bound | H4KC20me2: dimethylated histone H4 peptide (residues 12–25) with chemically installed dimethyl-lysine analog (KGGAKRHRCVLRDN; dimethyl-lysine analog at position 20 (KC20me2), installed chemically) [reference compound] |  | 
2 |  | bound | p53K382me2: dimethylated p53 peptide (residues 377–386) purchased from GenScript (TSRHKK(Me2)LMFK) [reference compound] |  | 

The next lines start with the compound.

Row | Compound | Kd [1] | interaction with 53BP1TT-PN (1H-15N HSQC titration) [2] | changes in signal positions in the 1H-15N HSQC spectrum of 53BP1TT upon titration (53BP1^TT WT) | other results
3 | CC(C)(C)NCCCNC(=O)c1cccc(I)c1 [UNC2991] | 3.9 ± 0.4 µM | did not interact | slow exchange on the chemical shift time scale | 
4 | 53BP1^TT-CC (tandem Tudor domain of 53BP1, residues 1481-1603, E1549C/E1567C), disulfide-crosslinked homodimer (from UniProt Q12888 1481-1603) (domain or fragment) |  |  |  | stoichiometry N [3]: 2
5 | CC(C)(C)NCCCNC(=O)c1cccc(Br)c1 [UNC2170] |  | did not interact | slow exchange on the chemical shift time scale | Kd (53BP1^TT): 22 ± 2.5 µM; interconversion rate kAB between the two protomers in the 53BP1TT dimer (53BP1^TT homodimer): 1.7 s⁻¹; interconversion rate kBA between the two protomers in the 53BP1TT dimer (53BP1^TT homodimer): 1.2 s⁻¹
6 | CC(C)(C)NCCCNC(=O)c1cccc(C(F)(F)F)c1 [UNC3351] | 6.8 ± 0.4 µM |  | slow exchange on the chemical shift time scale | 
